Source: US20260069584A1, “METHODS OF TREATING CHRONIC MYELOID LEUKEMIA USING THE TYROSINE KINASE INHIBITOR VODOBATINIB” (Sun Pharma Advanced Research Company Ltd., priority 2022, published 2026)

Assay: Part B: safety, treatment-emergent adverse events, DLT and MTD
Type: in vivo
Excerpt: For the purpose of the present invention, the adverse events were graded as per the National Cancer Institute's, Common Terminology Criteria for Adverse Events (NCI-CTCAE) Version 4.03 and Version 5.0 (https://evs.nci.nih.gov/ftp1/CTCAE/About.html). It is a descriptive terminology which can be utilized for Adverse Event (AE) reporting.
AEs were graded as per NCI-CTCAE Version 5.0. In the present study, along with others most common AEs for which patients were monitored were thrombocytopenia, neutropenia and anemia, any AE reported by the patient after the completion of AE collection period and considered related to the study drug was reported.
Dose Limiting Toxicity (DLT) is defined as the occurrence of any of the following unless clearly and incontrovertibly related to the underlying disease. The hematological DLTs were defined as per the Phase of CML: • a) Grade 3 or higher, or other non-hematological toxicity, including nausea, vomiting and diarrhea, and refractory to standard antiemetic therapy except alopecia and nail disorders; • b) Missed ≥25% of doses over 28 days due to toxicity in Cycle 1; and • c) Any grade of toxicity requiring dose reduction or discontinuation of IMP within the 28-days DLT assessment period (Cycle 1).
Safety Parameters: Parts B and C: Descriptive summaries were provided for the safety variables collected. Continuous variables were summarized using mean, standard deviation, minimum, median, and maximum. Categorical variables were summarized using frequency counts and percentages. For time-to-event variables, other percentiles were presented. In addition, summaries of AEs by intensity, seriousness, frequency, and relationship to IMP are presented. Adverse events (AE) s were coded using the Medical Dictionary for Regulatory Activities (MedDRA) and summarized by System Organ Class (SOC) and Preferred Term (PT).
In this study, the dose-escalation cohort started with an accelerated titration study design (ATD) and shifted to a 3±3 design when subjects in the preceding ATD cohort experienced either grade 2 or higher adverse events (AEs) or dose-limiting toxicity (DLT) during Cycle 1 that was not clearly and incontrovertibly related to the underlying disease or concomitant medications. The DLT period consisted of 28 days (Cycle 1). Subjects experiencing DLTs were managed with dose delays and/or discontinuation and continued in the study until disease progression. Decisions to advance to a succeeding dose level occurred after the evaluation of safety and tolerability data for a given dose level.
For the cohorts, where the 3±3 design applies, 3 subjects were enrolled initially. If 2 of these subjects experienced a Grade 2 or more toxicity (that was not clearly and incontrovertibly related to the underlying disease or concomitant medications), subsequent cohorts were escalated according to smaller increments. Further, if there were no DLTs in the first 3 subjects, dose escalation to the next higher dose level was allowed to proceed. If 1 of the 3 subjects experienced a DLT, that dose level was expanded to 6 subjects (3 additional subjects were enrolled). If 2 subjects at a given dose level experienced a DLT, the MTD was considered to have been exceeded. The next lower dose level was expanded to 6 subjects, or if 6 subjects had already been enrolled and no more than 1 of the 6 subjects experienced a DLT, then this lower dose level was considered the MTD. Additional subjects were enrolled in dose escalation cohorts for further assessment of safety and efficacy of the compound of Formula 1 at doses that were tolerated (i.e., doses that have <2 DLTs in 6 enrolled subjects or <1 DLT in 3 enrolled subjects). Thus 204 mg was arrived at as MTD. A subject experiencing a DLT was allowed to continue therapy with a reduced dose. Subjects who experienced a DLT and recovered were treated at the next lower dose level until disease progression or other events requiring further dose reduction existed. […]

Cc1ccc(C(=O)NNC(=O)c2c(C)cccc2Cl)cc1C#Cc1cnc2ccccc2c1 [compound of Formula I, N′-(2-chloro-6-methylbenzoyl)-4-methyl-3-[2-(3-quinolyl)ethynyl]-benzohydrazide]
80%: grade 3 or 4 AEs (28 patients, 3 or more TKI treatments)
11 No of pts: Anemia, Any grade (Overall (N = 53)) | Cough, Any grade (Overall (N = 53)) | TEAEs: Dose modifications, Any grade (Overall (N = 53))
11 subjects: discontinued from the study (41 subjects, dose escalation cohorts)
14 No of pts: TEAEs Related to comp of Formula I, Grade 3/4 (Overall (N = 53))
5 No of pts: Amylase increased, Any grade (Overall (N = 53)) | Lipase increased, Any grade (Overall (N = 53)) | Cough, Any grade (Prior Ponatinib (N = 22))
19 No of pts: All TEAEs, Grade 3/4 (Prior Ponatinib (N = 22))
7 No of pts: Anemia, Grade 3/4 (Overall (N = 53)) | Back pain, Any grade (Overall (N = 53)) | Fatigue, Any grade (Overall (N = 53)) | Myalgia, Any grade (Overall (N = 53)) | Neutropenia, Grade 3/4 (Overall (N = 53)) | Vomiting, Any grade (Overall (N = 53)) | Diarrhoea, Any grade (Prior Ponatinib (N = 22)) | Nausea, Any grade (Prior Ponatinib (N = 22)) | SAEs, Grade 3/4 (Prior Ponatinib (N = 22)) | TEAEs Related to comp of Formula I, Grade 3/4 (Prior Ponatinib (N = 22)) | TEAEs: Dose discontinued and restarted, Grade 3/4 (Prior Ponatinib (N = 22)) | Thrombocytopenia, Any grade (Prior Ponatinib (N = 22))
20 No of pts: SAEs, Any grade (Overall (N = 53)) | TEAEs: Dose discontinued and restarted, Any grade (Overall (N = 53))
11.3%: AEs leading to permanent discontinuation (6 pts)
4 No of pts: Amylase increased, Grade 3/4 (Overall (N = 53)) | Lipase increased, Grade 3/4 (Overall (N = 53)) | Anemia, Grade 3/4 (Prior Ponatinib (N = 22)) | Fatigue, Any grade (Prior Ponatinib (N = 22)) | Headache, Any grade (Prior Ponatinib (N = 22)) | Pruritis, Any grade (Prior Ponatinib (N = 22)) | Pyrexia, Any grade (Prior Ponatinib (N = 22)) | Rhinitis, Any grade (Prior Ponatinib (N = 22)) | TEAEs: Dose modifications, Grade 3/4 (Prior Ponatinib (N = 22)) | Vomiting, Any grade (Prior Ponatinib (N = 22))
2 No of pts: TEAEs Leading to drug withdrawal, Grade 3/4 (Overall (N = 53)) | Amylase increased, Grade 3/4 (Prior Ponatinib (N = 22)) | Death, Any grade (Prior Ponatinib (N = 22)) | Lipase increased, Any grade (Prior Ponatinib (N = 22)) | Lipase increased, Grade 3/4 (Prior Ponatinib (N = 22)) | Myalgia, Any grade (Prior Ponatinib (N = 22)) | Nasopharyngitis, Any grade (Prior Ponatinib (N = 22)) | Neutropenia, Grade 3/4 (Prior Ponatinib (N = 22)) | TEAEs Leading to drug withdrawal, Any grade (Prior Ponatinib (N = 22)) | TEAEs Leading to drug withdrawal, Grade 3/4 (Prior Ponatinib (N = 22))
1 subject: discontinued from the study due to AE (10 subjects, dose expansion at 174 mg)
0 No of pts: Back pain, Grade 3/4 (Overall (N = 53)) | Constipation, Grade 3/4 (Overall (N = 53)) | Cough, Grade 3/4 (Overall (N = 53)) | Death, Grade 3/4 (Overall (N = 53)) | Decreased appetite, Grade 3/4 (Overall (N = 53)) | Fatigue, Grade 3/4 (Overall (N = 53)) | Headache, Grade 3/4 (Overall (N = 53)) | Myalgia, Grade 3/4 (Overall (N = 53)) | Nasopharyngitis, Grade 3/4 (Overall (N = 53)) | Nausea, Grade 3/4 (Overall (N = 53)) | Pruritis, Grade 3/4 (Overall (N = 53)) | Rhinitis, Grade 3/4 (Overall (N = 53)) | Vomiting, Grade 3/4 (Overall (N = 53)) | Back pain, Grade 3/4 (Prior Ponatinib (N = 22)) | Constipation, Grade 3/4 (Prior Ponatinib (N = 22)) | Cough, Grade 3/4 (Prior Ponatinib (N = 22)) | Death, Grade 3/4 (Prior Ponatinib (N = 22)) | Decreased appetite, Grade 3/4 (Prior Ponatinib (N = 22)) | Fatigue, Grade 3/4 (Prior Ponatinib (N = 22)) | Headache, Grade 3/4 (Prior Ponatinib (N = 22)) | Myalgia, Grade 3/4 (Prior Ponatinib (N = 22)) | Nasopharyngitis, Grade 3/4 (Prior Ponatinib (N = 22)) | Nausea, Grade 3/4 (Prior Ponatinib (N = 22)) | Pruritis, Grade 3/4 (Prior Ponatinib (N = 22)) | Rhinitis, Grade 3/4 (Prior Ponatinib (N = 22)) | Vomiting, Grade 3/4 (Prior Ponatinib (N = 22))
33.4%: grade 3 or 4 AEs (6 patients, prior 2 TKI treatments)
22 No of pts: Thrombocytopenia, Any grade (Overall (N = 53)) | All TEAEs, Any grade (Prior Ponatinib (N = 22))
41.5%: thrombocytopenia (any grade)
1 No of pts: Diarrhoea, Grade 3/4 (Overall (N = 53)) | Pyrexia, Grade 3/4 (Overall (N = 53)) | Diarrhoea, Grade 3/4 (Prior Ponatinib (N = 22)) | Pyrexia, Grade 3/4 (Prior Ponatinib (N = 22))
15 No of pts: TEAEs Related to comp of Formula I, Any grade (Prior Ponatinib (N = 22))
51 No of pts: All TEAEs, Any grade (Overall (N = 53))
6 No of pts: Decreased appetite, Any grade (Overall (N = 53)) | Nasopharyngitis, Any grade (Overall (N = 53)) | Pruritis, Any grade (Overall (N = 53)) | Rhinitis, Any grade (Overall (N = 53)) | TEAEs Leading to drug withdrawal, Any grade (Overall (N = 53)) | TEAEs: Dose modifications, Grade 3/4 (Overall (N = 53)) | Anemia, Any grade (Prior Ponatinib (N = 22))
22%: diarrhea (any grade)
3 No of pts: Amylase increased, Any grade (Prior Ponatinib (N = 22)) | Back pain, Any grade (Prior Ponatinib (N = 22)) | Constipation, Any grade (Prior Ponatinib (N = 22)) | Decreased appetite, Any grade (Prior Ponatinib (N = 22)) | Neutropenia, Any grade (Prior Ponatinib (N = 22)) | Thrombocytopenia, Grade 3/4 (Prior Ponatinib (N = 22))
12 No of pts: Diarrhoea, Any grade (Overall (N = 53)) | SAEs, Grade 3/4 (Overall (N = 53)) | TEAEs: Dose discontinued and restarted, Grade 3/4 (Overall (N = 53)) | TEAEs: Dose discontinued and restarted, Any grade (Prior Ponatinib (N = 22))
86.3%: grade 3 or 4 AEs (19 patients treated with ponatinib)
10 No of pts: Thrombocytopenia, Grade 3/4 (Overall (N = 53)) | SAEs, Any grade (Prior Ponatinib (N = 22))
34 No of pts: All TEAEs, Grade 3/4 (Overall (N = 53))
20.8%: Cough (any grade) | anemia (any grade)
35 No of pts: TEAEs Related to comp of Formula I, Any grade (Overall (N = 53))
8 No of pts: Constipation, Any grade (Overall (N = 53)) | Headache, Any grade (Overall (N = 53)) | Nausea, Any grade (Overall (N = 53)) | Neutropenia, Any grade (Overall (N = 53)) | Pyrexia, Any grade (Overall (N = 53)) | TEAEs: Dose modifications, Any grade (Prior Ponatinib (N = 22))
4 subjects: discontinued due to disease progression (41 subjects, dose escalation) | discontinued due to AEs (41 subjects, dose escalation (1 each at 48, 126, 174 and 204 mg))
